# Data as given in patent publication US20220127297A1, “Novel Antibacterial 3"-Derivatives Of 4,6-Disubstituted 2,5-Dideoxystreptamine Aminoglycoside Antibiotics” (AGILeBiotics B.V., priority 2018, published 2022).
# Assays:
# Test in all cases: MIC determination at Uppsala University
# Type in all cases: cell-based
# A. baumanii ATCC 19606 = details: Acinetobacter baumannii, ATCC19606, AMEs: WT
# Description: (§1) 3.4.1 MIC Determination at Uppsala University (Sweden)
# (§2) Tested reference compounds. Amikacin disulfate (Cat. No. A1774, Sigma Aldrich), Apramycin sulfate (Cat. No. A2024, Sigma Aldrich) and Gentamicin sulfate (Cat. No. G1914, Sigma Aldrich).
# (§3) Bacterial strains/isolates. All assayed laboratory and clinical strains (P. aeruginosa PA01, A. baumanii ATCC 19606, A. baumanii 195N(a), A. baumanii 48F, E. coli C1162, E. coli C1181, M. morgannii S49 and P. stuartii B8-1) were from the IMI ND4BB ENABLE consortium strain collection. ATCC laboratory strains were acquired directly from the American Type Culture Collection. Clinical strains used were previously published (M Juhas, et al. J. Antimicrob. Chemother., 74 (4), 944-952 (2019); D. Hughes et al., Antimicrob. Agents Chemother., 47 (10), 3222-3232 (2003)) and were resistance genotyped within the ENABLE consortium.
# (§4) Culture media and equipment. Water (Thermo Scientific, R05819); Mueller-Hinton II broth (BD Ref. 212322); sterile round-bottom 96-well plates (Thermo Scientific, 262162); Sensititre Nephelometer (ThermoFisher Scientific, V3011); 0.5 McFarland Standard (ThermoFisher Scientific, E1041); sterile polyester film (VWR, 391-1251).
# (§5) Compound preparation. MIC assay procedure follows the CLSI M07 standard method (Clinical and Laboratory Standards Institute (CLSI); Methods for dilution antimicrobial susceptibility tests for bacteria that grow aerobically; approved standard—eleventh edition, M07-A10, Vol. 38, No. 2, 2018). Test compounds were received as solids and were dissolved in water to a concentration of 10 mg/mL of active compound. […] This solution was serially diluted in 2-fold steps in the first 10 columns of sterile round-bottom 96-well plates, while the final two columns were filled with Mueller-Hinton II broth without added compound for use as positive and negative growth controls.
# (§6) Inoculum preparation. Inoculums were prepared by suspending several colonies freshly streaked culture of test strains in 5 mL of sterile 0.9% NaCl. The cell density of the inoculum solution was assessed and adjusted using a Sensititre Nephelometer and a 0.5 McFarland Standard. The inoculum was diluted 1:100 in Mueller-Hinton II broth and 50 μL of this inoculum solution was added to 50 μL of the test compound solutions yielding a concentration range of 64-0.125 μg/mL. The plates were sealed with sterile polyester film and stationarily incubated at 37° C. for 18 hours.
# (§7) MIC determination. The MIC value was determined by visual inspection of bacterial growth within 96-well plates. The lowest concentration completely inhibiting growth was reported as the MIC for each strain and compound combination.
# E. coli C1181 = details: Escherichia coli, ANT(3″)-Ia, APH(3′)-Ia
# Description: as §1, §2, §3, §4, §5, §6, §7
# A. baumanii 195N (a) = details: Acinetobacter baumannii, AAC(3)Ia, ANT(3″)Ia, APH(3″)Ib, APH(3′)VI, APH(6)Id
# Description: as §1, §2, §3, §4, §5, §6, §7
# P. aeruginosa PAO1 = details: Pseudomonas aeruginosa, AMEs: WT
# Description: as §1, §2, §3, §4, §5, §6, §7
# A. baumanii 48F = details: Acinetobacter baumannii; A. boumanii 48F; ANT(2″)Ia, APH(3″)-Ib, APH(3′)-VIa, APH(6)-Id
# Description: as §1, §2, §3, §4, §5, §6, §7
# P. stuartii B8-1 = details: Providencia stuartii, B81, AAC(3)-Ic, ANT (3″)Ia, APH(3′)-IIa, APH(3′)-IIb, APH(3′)-VI, APH(6)-Ic
# Description: as §1, §2, §3, §4, §5, §6, §7
# E. coli C1162 = details: Escherichia coli, APH(3′)-Ia
# Description: as §1, §2, §3, §4, §5, §6, §7
# M. morgannii S49 = details: Morganella morganii, AAC(3)-IId, ANT(3″), APH(3″)-Ib, APH(3′)-Ia, APH(6)-Id
# Description: as §1, §2, §3, §4, §5, §6, §7
structure (smiles),measurement,setting,value
"CN[C@@H]1[C@@H](O[C@H]2O[C@H](CO)[C@@H](N)[C@H](O)[C@H]2O)OC2C[C@@H](N)[C@@H](O[C@H]3[C@H](O)[C@@H](O)[C@H](N)C[C@@H]3N)OC2[C@@H]1O (some centres unmarked) [Apramycin, apramycin, reference compound]",MIC90,A. baumanii ATCC 19606,32 µg/mL
same,MIC90,E. coli C1181,8 µg/mL
same,MIC90,A. baumanii 195N (a),32 µg/mL
same,MIC90,P. aeruginosa PAO1,8 µg/mL
same,MIC90,A. baumanii 48F,32 µg/mL
same,MIC90,P. stuartii B8-1,8 µg/mL
same,MIC90,E. coli C1162,8 µg/mL
same,MIC90,M. morgannii S49,8 µg/mL
